Reference: paper PMC6797481, “Identification of an allosteric binding site on the human glycine transporter, GlyT2, for bioactive lipid analgesics” (eLife, 2019)

Key:
GlyT2 R439L mutant = target: T1, GlyT2 R439L mutant (Homo sapiens, UniProt Q9Y345, R439L); experiment: Glycine transport currents, two electrode voltage clamp, oocytes expressing GlyT2 R439L; assay type: cell-based
T1 construct: expressed in transfected cells; host or cells: Xenopus laevis oocytes (cRNA injection)
T1 sequence (Q9Y345 1-797 R439L): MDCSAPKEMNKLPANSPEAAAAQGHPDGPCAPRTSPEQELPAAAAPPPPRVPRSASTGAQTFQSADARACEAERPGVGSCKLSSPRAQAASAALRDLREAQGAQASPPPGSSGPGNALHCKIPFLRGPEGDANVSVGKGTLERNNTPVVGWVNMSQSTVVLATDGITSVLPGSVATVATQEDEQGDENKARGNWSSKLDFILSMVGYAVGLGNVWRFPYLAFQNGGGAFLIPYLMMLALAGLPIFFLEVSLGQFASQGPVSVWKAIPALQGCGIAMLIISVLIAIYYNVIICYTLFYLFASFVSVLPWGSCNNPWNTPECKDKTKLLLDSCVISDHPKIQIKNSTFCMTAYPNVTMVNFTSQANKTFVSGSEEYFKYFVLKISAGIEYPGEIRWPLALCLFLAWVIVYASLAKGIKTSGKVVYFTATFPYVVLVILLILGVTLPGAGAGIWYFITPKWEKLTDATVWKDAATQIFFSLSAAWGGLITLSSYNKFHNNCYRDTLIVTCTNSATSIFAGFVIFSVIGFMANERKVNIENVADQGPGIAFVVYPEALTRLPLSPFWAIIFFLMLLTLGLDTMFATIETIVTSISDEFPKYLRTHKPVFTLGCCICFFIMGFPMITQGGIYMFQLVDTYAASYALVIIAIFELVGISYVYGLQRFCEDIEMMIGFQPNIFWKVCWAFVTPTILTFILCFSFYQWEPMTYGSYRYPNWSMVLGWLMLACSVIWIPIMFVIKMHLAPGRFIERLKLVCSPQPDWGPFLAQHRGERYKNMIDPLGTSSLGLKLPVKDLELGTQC
Method: Glycine was first applied to establish maximal transport current.
Compounds were tested for inhibition of glycine transport on Xenopus laevis oocytes expressing mutant GlyT1 and GlyT2 transporters. n values are in brackets, with measurements taken from at least 2 batches of oocytes.

GlyT2 D469A mutant = GlyT2 D469A mutant (Homo sapiens, UniProt Q9Y345, D469A); settings: read-out: Glycine EC50; glycine transport, GlyT2 D469A (vestibule allosteric site)
Chain of GlyT2 D469A mutant (Q9Y345 whole entry D469A): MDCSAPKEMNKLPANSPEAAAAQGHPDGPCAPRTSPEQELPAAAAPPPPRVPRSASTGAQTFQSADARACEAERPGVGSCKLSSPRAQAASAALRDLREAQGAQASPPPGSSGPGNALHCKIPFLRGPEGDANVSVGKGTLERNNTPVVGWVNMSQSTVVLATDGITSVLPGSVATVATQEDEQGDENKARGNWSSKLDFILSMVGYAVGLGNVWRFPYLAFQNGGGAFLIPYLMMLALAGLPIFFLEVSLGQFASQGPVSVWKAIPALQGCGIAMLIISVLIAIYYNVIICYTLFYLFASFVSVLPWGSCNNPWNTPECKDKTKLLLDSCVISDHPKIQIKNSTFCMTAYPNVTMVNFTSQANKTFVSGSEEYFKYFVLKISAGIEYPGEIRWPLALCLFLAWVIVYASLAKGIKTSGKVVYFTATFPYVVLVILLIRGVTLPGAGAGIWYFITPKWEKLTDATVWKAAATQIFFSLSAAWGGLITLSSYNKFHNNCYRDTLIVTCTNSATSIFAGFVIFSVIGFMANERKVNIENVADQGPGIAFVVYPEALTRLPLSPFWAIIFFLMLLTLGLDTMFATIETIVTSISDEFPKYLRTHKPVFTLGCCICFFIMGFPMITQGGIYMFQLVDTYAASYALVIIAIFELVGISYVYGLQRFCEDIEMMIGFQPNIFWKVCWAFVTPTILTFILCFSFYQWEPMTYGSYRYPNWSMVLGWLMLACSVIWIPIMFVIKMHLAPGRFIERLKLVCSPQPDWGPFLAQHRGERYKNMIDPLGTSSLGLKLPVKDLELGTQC
Method: (§1) Human GlyT1b or GlyT2a (herein referred to as GlyT1 and GlyT2) cDNA were sub-cloned into the plasmid oocyte transcription vector (pOTV). Site-directed mutagenesis was performed using traditional PCR techniques, and sequences confirmed by the Australian Genome Research Facility (Sydney, Australia). WT and mutant plasmid DNA were linearised with SpeI (New England Biolabs (Genesearch) Arundel, Australia) and RNA transcribed by T7 RNA polymerase using the mMessagemMachine kit (Ambion, TX, USA).
(§2) Oocytes were extracted from female Xenopus laevis frogs and detached from follicle cell containing lobes by digestion with 2 mg/mL collagenase A (Boehringer, Mannheim, Germany). Defoliculated stage V-VI oocytes were injected with 4.6 ng of cRNA encoding WT or mutant transporter (Drummond Nanoinject, Drummond Scientific Co., Broomall, PA, USA). Surgical proceedures have been approved by the University of Sydney Animal Ethics Committee (protocol 2016/970). The oocytes were stored at 16–18°C for 2–5 days in ND96 solution (96 mM NaCl, 2 mM KCL, 1 mM MgCl2, 1.8 mM CaCl2, 5 mM HEPES, pH 7.55), supplemented with 2.5 mM sodium pyruvate, 0.5 mM theophylline, 50 µg/mL gentamicin and […] tetracycline.
(§3) 2–5 days following injection, glycine transport currents were measured at −60 mV using Geneclamp 500 amplifier (Axon Instruments, Foster City, CA, USA) with a Powerlab 2/20 chart recorder (ADInstruments, Sydney, Australia) and chart software (ADInstruments). All data were subsequently analysed using GraphPad Prism 7.02 (GraphPad Software, San Diego, CA).
(§4) The function of each mutant transporter was tested by measuring glycine concentration dependent transport currents in ND96 (96 mM Na^+) to drive transport. EC50 values were determined using the modified Michaelis-Menten equation:(1) I=([GIy].Imax)/EC50+[GIy] where I is current (nA), [Gly] is the concentration of glycine, Imax is the current generated by a maximal concentration of glycine (300 µM) and EC50 is the concentration of glycine that generates a half maximal current. Values are presented as mean ± SEM obtained fromn ≥3 cells from at least two batches of oocytes. To determine if mutations affected glycine transport, one way ANOVA tests were employed, with a Dunnett’s post-hoc test used for comparison with WT GlyT2. For L425I comparison with WT GlyT1 a two-tailed t-test was used. Statistical significance were represented as p<0.05 *, p<0.01 **, p<0.001 *** etc. in the following figures.
(§5) Glycine concentration response curves were performed on WT and mutant transporters to generate EC50 values. Transport currents were measured in the presence of increasing concentrations of glycine (1 – 300 μM).

GlyT2 Q473A mutant = GlyT2 Q473A mutant (Homo sapiens, UniProt Q9Y345, Q473A); settings: read-out: Glycine EC50; glycine transport, GlyT2 Q473A (vestibule allosteric site)
Chain of GlyT2 Q473A mutant (Q9Y345 whole entry Q473A): as the sequence (Q9Y345 whole entry D469A) above, with A469D, Q473A counted along it
Method: as §1, §2, §3, §4, §5

GlyT2 S696A mutant = GlyT2 S696A mutant (Homo sapiens, UniProt Q9Y345, S696A); settings: read-out: Glycine EC50; glycine transport, GlyT2 S696A (vestibule allosteric site)
Chain of GlyT2 S696A mutant (Q9Y345 whole entry S696A): as the sequence (Q9Y345 whole entry D469A) above, with A469D, S696A counted along it
Method: as §1, §2, §3, §4, §5

GlyT2 T472A mutant = GlyT2 T472A mutant (Homo sapiens, UniProt Q9Y345, T472A); settings: glycine transport, GlyT2 T472A (vestibule allosteric site)
Chain of GlyT2 T472A mutant (Q9Y345 whole entry T472A): as the sequence (Q9Y345 whole entry D469A) above, with A469D, T472A counted along it
Method: as §1, §2, §3, §4, §5

GlyT2 T634A mutant = GlyT2 T634A mutant (Homo sapiens, UniProt Q9Y345, T634A); settings: read-out: Glycine EC50; glycine transport, GlyT2 T634A (vestibule allosteric site)
Chain of GlyT2 T634A mutant (Q9Y345 whole entry T634A): as the sequence (Q9Y345 whole entry D469A) above, with A469D, T634A counted along it
Method: as §1, §2, §3, §4, §5

GlyT2 F569A/V/L mutants = settings: glycine transport, GlyT2 F569A/V/L (TM8)
Method: as §1, §2, §3, §4, §5

GlyT2 P429A mutant = GlyT2 P429A mutant (Homo sapiens, UniProt Q9Y345, P429A); settings: glycine transport, GlyT2 P429A (TM5)
Chain of GlyT2 P429A mutant (Q9Y345 whole entry P429A): as the sequence (Q9Y345 whole entry D469A) above, with P429A, A469D counted along it
Method: as §1, §2, §3, §4, §5

GlyT2 E701A mutant = GlyT2 E701A mutant (Homo sapiens, UniProt Q9Y345, E701A); settings: read-out: Glycine EC50; glycine transport, GlyT2 E701A (vestibule allosteric site)
Chain of GlyT2 E701A mutant (Q9Y345 whole entry E701A): as the sequence (Q9Y345 whole entry D469A) above, with A469D, E701A counted along it
Method: as §1, §2, §3, §4, §5

| IC50 (GlyT2 R439L mutant; GlyT2 R439L, mean (95% CI)) | % Max. inhibition (GlyT2 R439L mutant; GlyT2 R439L, mean ± SEM) | SMILES | EC50 (GlyT2 R439L mutant; glycine transport, GlyT2 R439L (TM5)) | EC50 (GlyT2 D469A mutant) | EC50 (GlyT2 Q473A mutant) | EC50 (GlyT2 S696A mutant) | Glycine EC50 (GlyT2 T472A mutant) | EC50 (GlyT2 T634A mutant) | Glycine EC50 (GlyT2 F569A/V/L mutants) | Glycine EC50 (GlyT2 P429A mutant) | EC50 (GlyT2 E701A mutant) |
| --- | --- | --- | --- | --- | --- | --- | --- | --- | --- | --- | --- |
|  |  | NCC(=O)O [Glycine] | 23 ± 4 µM | 110 ± 12.8 µM | 498 ± 146 µM | 25.6 ± 2.7 µM | No transport currents | 28.6 ± 3.2 µM | No transport currents | No transport currents | 16.5 ± 0.87 µM |
| 0.109 µM | 75.3 ± 4.2 (p=0.1040) % | CCCCCCCC/C=C\CCCCCCCC(=O)N[C@@H](Cc1c[nH]c2ccccc12)C(=O)O [oleoyl l-Tryptophan] |  |  |  |  |  |  |  |  |  |
